For one data set, the system named is Male beagle dogs. Description: Experiment on gastrointestinal motility in dogs. As to conditions: 0.03 mg/kg orally, 8 hr after administration, compared with the solvent administration group. Format: in vivo, dog. The procedure:
Experiment on Gastrointestinal Motility in Dogs
Male beagle dogs each equipped with four pressure transducers (one in the ileum and three in the large intestine) were used after an acclimation period for 15 days after surgery. The compound of Example 1 (0.03 mg/kg) was suspended in 0.5% methylcellulose solution and orally administered at a volume of 10 mL/kg. Only 0.5% methylcellulose was administered to a solvent administration group.
HAPC (abbreviation for high amplitude propagated contractions which mean strong contractions propagated from the oral side to the anal side of the large intestine during defecation. Intestinal contraction pattern observed during normal defecation.) at 8 hr after administration was counted using a telemeter for gastrointestinal motility (GTS-850, STARMEDICAL).

The target of another data set is T1, MDR1 (Homo sapiens, UniProt P08183).
T1 construct: expressed in transfected cells
T1 sequence (P08183 whole entry): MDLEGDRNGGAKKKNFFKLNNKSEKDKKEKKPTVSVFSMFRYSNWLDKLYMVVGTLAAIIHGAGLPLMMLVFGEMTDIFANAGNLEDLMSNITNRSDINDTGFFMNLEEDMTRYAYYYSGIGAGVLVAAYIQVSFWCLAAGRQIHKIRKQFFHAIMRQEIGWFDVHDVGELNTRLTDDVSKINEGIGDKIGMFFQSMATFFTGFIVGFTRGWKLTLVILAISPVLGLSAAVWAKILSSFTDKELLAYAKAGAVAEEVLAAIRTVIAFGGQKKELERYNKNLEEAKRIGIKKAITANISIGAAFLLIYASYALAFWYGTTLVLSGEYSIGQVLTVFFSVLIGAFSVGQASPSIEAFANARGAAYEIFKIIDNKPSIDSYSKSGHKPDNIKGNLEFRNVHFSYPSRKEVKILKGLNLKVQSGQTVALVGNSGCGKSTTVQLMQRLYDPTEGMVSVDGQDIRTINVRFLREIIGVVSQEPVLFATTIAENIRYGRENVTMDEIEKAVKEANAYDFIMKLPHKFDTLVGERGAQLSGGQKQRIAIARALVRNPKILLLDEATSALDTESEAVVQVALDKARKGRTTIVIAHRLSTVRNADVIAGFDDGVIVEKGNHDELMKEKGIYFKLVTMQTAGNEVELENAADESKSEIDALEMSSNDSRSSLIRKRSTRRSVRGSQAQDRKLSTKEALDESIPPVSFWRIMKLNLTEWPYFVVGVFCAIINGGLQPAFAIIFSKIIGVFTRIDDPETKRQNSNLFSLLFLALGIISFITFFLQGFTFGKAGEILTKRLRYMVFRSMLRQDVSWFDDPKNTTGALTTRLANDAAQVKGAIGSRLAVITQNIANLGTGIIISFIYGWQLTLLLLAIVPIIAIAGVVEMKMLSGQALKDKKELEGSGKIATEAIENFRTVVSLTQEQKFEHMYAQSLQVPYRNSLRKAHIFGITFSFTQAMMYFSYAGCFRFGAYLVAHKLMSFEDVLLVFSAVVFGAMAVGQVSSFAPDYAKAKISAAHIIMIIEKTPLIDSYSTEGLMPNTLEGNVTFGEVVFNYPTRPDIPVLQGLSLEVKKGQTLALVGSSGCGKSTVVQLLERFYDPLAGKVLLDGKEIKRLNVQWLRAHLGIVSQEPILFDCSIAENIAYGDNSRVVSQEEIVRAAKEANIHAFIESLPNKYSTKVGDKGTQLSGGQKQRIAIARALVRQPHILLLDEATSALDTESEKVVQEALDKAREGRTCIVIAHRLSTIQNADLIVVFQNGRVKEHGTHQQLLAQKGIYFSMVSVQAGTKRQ
Description: MDR1 membrane permeability test. Format: in vitro ADME. The note with it: LLC-PK1, pH 7.4, 10 μmol/L test compound, Papp B to A / Papp A to B, read-out: Efflux ratio (ER). The procedure: MDR1 Membrane Permeability Test
When MDR1 is expressed in excess in LLC-PK1 cell, which is a polar cell, MDR1 is localized in apical membrane (A), thus promoting transcellular transport from the basement membrane side (B) toward direction A. When a ratio to the transcellular transport in the opposite direction is taken and a ratio to a control cell in which a mock vector has been introduced is further taken, an efflux ratio of MDR1 to simple diffusion (corrected efflux ratio) is calculated. Similarly, when a brain/plasma concentration ratio in Mdr1(−/−) mouse is divided by a brain/plasma concentration ratio in wild-type mouse, an efflux ratio of Mdr1 to simple diffusion in blood-brain barrier (BBB) (Kp, brain ratio, higher value means lower central nervous system permeability) is calculated. […]
Transcellular transport was performed according to the report of Sugimoto et al. (Reference 3). […] After 1 hr, the sample was collected from the side opposite to the side where the drug solution was added, and the concentration of the test compound was measured by LC-MS/MS. […]
Papp, A to B and Papp, B to A (apparent permeability) were calculated from the formula (1), and the efflux ratio (ER) was calculated from the formula (2). […]

A short description of another data set: Rat PK test. Format: in vivo. The note with it: plasma, male SD rats. The procedure: As the rat, 8-week-old male SD rats (Japan SLC, Inc.) were used. They were fed on a solid commercially available diet (CE-2, CLEA Japan, Inc.) and allowed to freely ingest tap water as the drinking water. An intravenous administration solution for the rats was prepared by weighing a test compound, dissolving same in dimethylacetamide (DMA) (Wako Pure Chemical Industries, Ltd.), adding the same volume of 1,3-butanediol (Wako Pure Chemical Industries, Ltd.) and mixing by stirring to give a DMA:1,3-butanediol (1:1, v/v) solution. An oral administration solution was prepared by weighing a test compound, pulverizing same in an agate mortar, and gradually adding 0.5 w/v % aqueous methylcellulose solution to give a suspension. For intravenous administration, the solution was administered into femoral vein of the rats at 0.1 mg/0.5 mL/kg (salt converted to free form). For oral administration, the suspension was administered to the rats at 1 mg/5 mL/kg (salt converted to free form). The cassette dosing method was used for the both administration routes, and the test compound was administered in the following manner.
Compound of Example 1 (Intravenous: 10 Compounds Cassette Administration, Oral: 5 Compounds Cassette Administration)
In the case of intravenous administration, blood samples were collected from the tail vein at 5, 10, 15, 30 min, 1, 2, 4, 8 hr after administration, an anticoagulation treatment with heparin sodium (Shimizu Pharmaceutical Co., Ltd.) was performed, and plasma was collected after centrifugation and subjected to the measurement of drug concentration. In the case of oral administration, blood samples were collected from the tail vein at 15, 30 min, 1, 2, 4, 8 hr after administration, an anticoagulation treatment with heparin sodium was performed, and plasma was collected after centrifugation and subjected to the measurement of drug concentration.
All drug concentrations were measured by LC-MS/MS analysis. […]

A further data set concerns Male SD rats. Description: Rat defecation experiment. Format: in vivo. The note with it: mean ± standard error. The procedure:
Rat Defecation Experiment
Male SD rats (5-6 weeks old) were used after an acclimation period for about 1 week. A test drug (1 mg/kg or […]) was suspended in 0.5% methylcellulose solution and orally administered at a volume of 5 mL/kg, and the number of feces 2 hr later was counted. Only 0.5% methylcellulose was administered to a solvent administration group.

The target of data set [1] is T2, human M1 receptor (hCHRM1) (Homo sapiens, UniProt P11229).
T2 construct: expressed in transfected cells
T2 sequence (P11229 1-460): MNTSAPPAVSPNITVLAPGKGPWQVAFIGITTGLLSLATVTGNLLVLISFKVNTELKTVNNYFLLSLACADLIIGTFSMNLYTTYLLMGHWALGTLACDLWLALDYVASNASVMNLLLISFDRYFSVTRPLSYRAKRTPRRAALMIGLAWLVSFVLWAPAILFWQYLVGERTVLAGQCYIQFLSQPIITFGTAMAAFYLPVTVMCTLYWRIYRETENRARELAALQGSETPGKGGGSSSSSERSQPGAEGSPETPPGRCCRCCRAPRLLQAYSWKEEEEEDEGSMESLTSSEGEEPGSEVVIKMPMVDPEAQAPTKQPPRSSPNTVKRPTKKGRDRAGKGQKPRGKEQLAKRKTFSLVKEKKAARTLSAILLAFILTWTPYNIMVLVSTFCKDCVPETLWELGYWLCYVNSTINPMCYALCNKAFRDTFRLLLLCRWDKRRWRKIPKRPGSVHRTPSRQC
Description: Measurement of M1 receptor positive allosteric modulator (M1PAM) activity. Format: cell-based. As to conditions: CHO-K1 cells stably expressing hCHRM1, in the presence of acetylcholine at EC20 concentration, IP1 readout. The procedure:
Measurement of M1 Receptor Positive Allosteric Modulator (M1PAM) Activity
The activity of a test compound in the presence of acetylcholine at an EC20 concentration affording about 20% action of the maximum activity was measured as PAM activity. The method therefor is as follows. To a 384-well white plate (Greiner) was added 4 μL of the test compound diluted with IP1 Stimulation buffer (CisBio) containing 0.1% fatty acid-free BSA containing 80 nM acetylcholine. Freeze stock of CHO-K1 cells stably expressing human M1 receptor (hCHRM1) was prepared with IP1 Stimulation buffer (CisBio) containing 0.1% fatty acid-free BSA, 4 μL thereof was added (10,000 cells/well) and the mixture was cultured in a 5% CO2 incubator at 37° C. for 1 hr. 4 μL of a solution (CisBio) containing IP1-d2 and Anti-IP1-cryptate Tb conjugate was added, the mixture was incubated at room temperature for 1 hr, and the time-resolved fluorescence signal was measured on an Envision plate reader (PerkinElmer). The activity (%) of the test compound was calculated by defining the value when acetylcholine was added at the final concentration of 20 μM as 100% and the value when DMSO was added instead of the test compound under acetylcholine-free conditions as 0%, and the EC50 value was calculated as a value of 50% of the concentration dependence curve of the test compound.

SMILES strings stand for the structures. pEC50: −log10 of the molar value.

The MRT is the average time that molecules of a dose stay in the body. By Tmax is commonly meant the time from dosing to the highest level. By pEC50 is commonly meant the negative decadic logarithm of the EC50, by convention in mol/L.

`COCCNC(=O)c1ccc(Cc2cc3c(c4c2OCC4)OCN([C@H]2CCOC[C@@H]2O)C3=O)cc1F` [Example 1, 1,5-anhydro-2,3-dideoxy-3-[6-({3-fluoro-4-[(2-methoxyethyl)carbamoyl]phenyl}methyl)-4-oxo-8,9-dihydro-2H-furo[2,3-h][1,3]benzoxazin-3(4H)-yl]-L-threo-pentitol]: in the data set with Male beagle dogs, the “number of HAPCs in the intestinal tract” value is listed as “an increase in the number of HAPCs in the intestinal tract was observed”. Further, the efflux ratio at 1 h, 10 μmol/L at MDR1 was 15. Besides, the MRT in the data set “Rat PK test” (intravenous 0.1 mg/kg, 10 compounds cassette administration) turned out to be 48 min. In addition, in “Rat PK test” (intravenous 0.1 mg/kg, 10 compounds cassette administration, read-out: CL total (converted)), the clearance was 12.6 mL/min/kg. Besides, the Tmax in “Rat PK test” (oral 1 mg/kg, 5 compounds cassette administration) is 60 min. Further, the “number of feces 2 hr later” value in the data set with Male SD rats (1 mg/kg orally) was determined as 14.8 ± 1.2; in the data set on Male SD rats (3 mg/kg orally), 13.9 ± 2.1. In addition, in data set [1], the negative-log EC50 (pEC50) was 9.51.

(Values after US12012419B2, “Heterocyclic compound” (Takeda Pharmaceutical Company Limited, priority 2018, dated 2024).)
